# pIC50: −log10 of the molar value.
# Test system: not listed separately
# Test: Apparent permeability in pig LLC-PK1 cells by LC-MS/MS analysis
# Assay type: ADME, cell-based, Sus scrofa
row,SMILES,Papp [×10⁻⁶ cm/s]
1,C[C@@]1(c2cc(NC(=O)c3ccc(C#N)cn3)ccc2F)C=CSC(N)=N1 [ATABECESTAT],23
2,C[C@@]1(c2cc(-c3cncnc3)c(F)cc2F)CCSC(N)=N1 [LY-2811376],33

# Molecular target: Beta-secretase 1 (Homo sapiens, UniProt P56817)
# Test: Inhibition of BACE1 (unknown origin) by HTRF assay
# Chain of Beta-secretase 1 (P56817 whole entry): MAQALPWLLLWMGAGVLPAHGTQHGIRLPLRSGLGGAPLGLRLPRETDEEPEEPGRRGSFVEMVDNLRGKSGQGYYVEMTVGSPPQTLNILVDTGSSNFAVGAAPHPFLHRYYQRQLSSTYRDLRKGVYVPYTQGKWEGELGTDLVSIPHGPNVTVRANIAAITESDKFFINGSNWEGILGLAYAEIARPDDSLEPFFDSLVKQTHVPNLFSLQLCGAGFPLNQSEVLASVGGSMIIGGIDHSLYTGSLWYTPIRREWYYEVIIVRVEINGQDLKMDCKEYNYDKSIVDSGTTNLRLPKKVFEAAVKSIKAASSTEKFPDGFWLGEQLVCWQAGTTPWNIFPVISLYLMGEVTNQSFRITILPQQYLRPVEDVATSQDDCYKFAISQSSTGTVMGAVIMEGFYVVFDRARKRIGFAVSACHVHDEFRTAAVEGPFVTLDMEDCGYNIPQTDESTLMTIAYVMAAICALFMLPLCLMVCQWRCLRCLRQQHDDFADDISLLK
row,SMILES,pIC50
1,C[C@@]1(c2cc(NC(=O)c3ncc(C#N)cc3F)ccc2F)C=C(CF)OC(N)=N1,6.81
2,COc1cnc(C(=O)Nc2ccc(F)c([C@]3(C)C=C(CF)OC(N)=N3)c2)nc1,6.62
3,COc1cnc(C(=O)Nc2ccc(F)c([C@]3(C)C=C(CF)OC(N)=N3)c2)c(C)n1,6.31
4,C[C@@]1(c2cc(NC(=O)c3ccn(C(F)F)n3)ccc2F)C=C(CF)OC(N)=N1,7.08

# — ChEMBL document CHEMBL5223187, “A Quantum Mechanics-Based Method to Predict Intramolecular Hydrogen Bond Formation Reflecting P-glycoprotein Recognition” (ACS Med Chem Lett, 2023)
